The target in series [1] is 5-hydroxytryptamine receptor 1B, HTR1B (h) (Homo sapiens, UniProt P28222). Format: binding. The settings on record: IPP screening at 10 uM; control serotonin.
The target in series [2] is cGMP-inhibited 3',5'-cyclic phosphodiesterase A, PDE3A (h) (Homo sapiens, UniProt Q14432). The experiment in a line: IPP PDE3A enzymatic activity. Format: biochemical. The settings on record: IPP screening at 10 uM; control milrinone.
Series [3] addresses Prostaglandin G/H synthase 1, PTGS1(h) (Homo sapiens, UniProt P23219). The experiment in a line: IPP PTGS1 enzymatic activity. Format: biochemical. The settings on record: IPP screening at 10 uM; control Diclofenac.
In series [4] the target is Voltage-dependent L-type Ca2+ channel (dihydropyridine site), CACNA1C (r) (Rattus norvegicus, UniProt P22002). The class given is binding. The settings on record: IPP screening at 10 uM; control nitrendipine.
Series [5] has as its system Potassium Voltage-Gated Channel Kv non-selective, KCNQ1 (r). The experiment in a line: IPP KCNQ1 binding (antagonist radioligand). More on the design: species or system rat. The settings on record: IPP screening at 10 uM; control α-dendrotoxin.
Series [6] addresses Cannabinoid receptor 1, CNR1 (h) (Homo sapiens, UniProt P21554). The class given is binding. The settings on record: IPP screening at 10 uM; control CP 55940.
In series [7] the test system is Gamma-aminobutyric acid receptor subunit alpha-1 BZD site, GABRA1A (r). The class given is binding, rat. The settings on record: IPP screening at 10 uM; control diazepam.
Series [8] has as its target Cannabinoid receptor 2, CNR2 (h) (Homo sapiens, UniProt P34972). Format: binding. The settings on record: IPP screening at 10 uM; control WIN 55212-2.
Series [9] concerns the target 5-hydroxytryptamine receptor 2A, HTR2A (h) (Homo sapiens, UniProt P28223). The class given is binding. The settings on record: IPP screening at 10 uM; control (±)DOI.
Series [10] deals with T1, Muscarinic acetylcholine receptor M3, CHRM3 (h) (Homo sapiens, UniProt P20309).
T1 construct: purchased Eurofins Cerep (SafetyScreen44-based IPP panel)
T1 sequence (P20309 whole entry): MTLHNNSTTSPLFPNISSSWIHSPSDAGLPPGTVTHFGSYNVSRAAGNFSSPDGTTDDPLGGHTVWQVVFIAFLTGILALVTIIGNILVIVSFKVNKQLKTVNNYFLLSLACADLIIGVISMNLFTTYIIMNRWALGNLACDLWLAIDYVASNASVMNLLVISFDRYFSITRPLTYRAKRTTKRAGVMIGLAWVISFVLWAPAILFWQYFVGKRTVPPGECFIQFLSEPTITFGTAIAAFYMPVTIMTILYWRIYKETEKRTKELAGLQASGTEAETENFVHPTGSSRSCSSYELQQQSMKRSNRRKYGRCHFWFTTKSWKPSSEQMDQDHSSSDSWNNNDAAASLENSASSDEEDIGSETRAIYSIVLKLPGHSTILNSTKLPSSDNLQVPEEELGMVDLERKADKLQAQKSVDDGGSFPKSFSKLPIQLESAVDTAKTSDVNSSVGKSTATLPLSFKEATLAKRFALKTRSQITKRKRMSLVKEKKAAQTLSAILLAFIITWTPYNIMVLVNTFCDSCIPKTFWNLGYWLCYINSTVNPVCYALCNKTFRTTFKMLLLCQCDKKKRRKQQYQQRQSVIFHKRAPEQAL
The class given is binding. The settings on record: 10 uM; ligand/control 4-DAMP.

Series [11] addresses Angiotensin-converting enzyme 2, ACE2 (h) (Homo sapiens, UniProt Q9BYF1). The experiment in a line: IPP ACE2 enzymatic activity. Format: biochemical. The settings on record: 10 uM; control captopril.
Series [12] concerns the target T2, Endothelin-1 receptor, EDNRA (h) (Homo sapiens, UniProt P25101).
T2 sequence (P25101 21-427): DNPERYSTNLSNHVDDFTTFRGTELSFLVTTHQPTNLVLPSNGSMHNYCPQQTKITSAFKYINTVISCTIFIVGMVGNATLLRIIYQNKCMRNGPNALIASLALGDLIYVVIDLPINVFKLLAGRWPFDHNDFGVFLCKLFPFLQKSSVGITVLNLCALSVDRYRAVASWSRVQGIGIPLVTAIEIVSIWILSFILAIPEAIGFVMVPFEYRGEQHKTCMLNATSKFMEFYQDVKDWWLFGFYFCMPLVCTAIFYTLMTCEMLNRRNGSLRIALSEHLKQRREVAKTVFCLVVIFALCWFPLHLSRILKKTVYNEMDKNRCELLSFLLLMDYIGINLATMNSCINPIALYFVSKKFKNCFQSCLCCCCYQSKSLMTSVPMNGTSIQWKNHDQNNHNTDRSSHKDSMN
The settings on record: IPP screening at 10 uM; control endothelin-1.

For series [13], the target named is T3, Alpha-2A adrenergic receptor, ADRA2A (h) (Homo sapiens, UniProt P08913).
T3 sequence (P08913 1-465): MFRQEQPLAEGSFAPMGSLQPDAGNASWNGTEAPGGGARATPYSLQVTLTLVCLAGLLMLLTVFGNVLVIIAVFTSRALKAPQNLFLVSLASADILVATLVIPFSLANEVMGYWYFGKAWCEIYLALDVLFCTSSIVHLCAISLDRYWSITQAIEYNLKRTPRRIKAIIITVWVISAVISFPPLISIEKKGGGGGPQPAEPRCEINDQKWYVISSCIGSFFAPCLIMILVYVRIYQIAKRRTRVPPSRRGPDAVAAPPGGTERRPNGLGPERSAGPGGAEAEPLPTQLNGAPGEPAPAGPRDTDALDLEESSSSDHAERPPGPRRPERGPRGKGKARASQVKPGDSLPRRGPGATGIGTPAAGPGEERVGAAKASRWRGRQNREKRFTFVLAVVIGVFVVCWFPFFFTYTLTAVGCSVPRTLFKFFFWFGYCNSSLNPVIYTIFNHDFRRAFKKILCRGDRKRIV
The settings on record: IPP screening at 10 uM; control yohimbine.

Series [14] concerns the target Beta-1 adrenergic receptor, ADRB1 (h) (Homo sapiens, UniProt P08588). The settings on record: IPP screening at 10 uM; control atenolol.
The target of series [15] is Sodium-dependent dopamine transporter, SLC6A3 (h) (Homo sapiens, UniProt Q01959). The settings on record: IPP screening at 10 uM; control BTCP.
Chain of Sodium-dependent dopamine transporter, SLC6A3 (h) (Q01959 whole entry): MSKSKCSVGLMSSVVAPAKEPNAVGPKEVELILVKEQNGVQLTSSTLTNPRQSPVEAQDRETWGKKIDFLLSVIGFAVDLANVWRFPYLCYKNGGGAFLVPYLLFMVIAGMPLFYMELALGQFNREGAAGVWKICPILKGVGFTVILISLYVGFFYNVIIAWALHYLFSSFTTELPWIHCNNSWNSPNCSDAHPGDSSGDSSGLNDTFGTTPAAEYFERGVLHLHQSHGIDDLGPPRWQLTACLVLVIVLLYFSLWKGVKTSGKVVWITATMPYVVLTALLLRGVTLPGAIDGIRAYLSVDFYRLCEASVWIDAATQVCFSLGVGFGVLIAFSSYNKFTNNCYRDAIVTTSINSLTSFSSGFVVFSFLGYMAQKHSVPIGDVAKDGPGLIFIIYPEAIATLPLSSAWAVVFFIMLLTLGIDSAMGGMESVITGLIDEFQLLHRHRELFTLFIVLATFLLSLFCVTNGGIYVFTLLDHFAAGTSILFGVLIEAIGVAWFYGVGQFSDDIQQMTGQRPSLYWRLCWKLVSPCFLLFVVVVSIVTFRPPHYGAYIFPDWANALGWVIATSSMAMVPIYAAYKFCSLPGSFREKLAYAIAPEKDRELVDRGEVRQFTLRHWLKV
Series [16] addresses Neuronal acetylcholine receptor subunit alpha-4, CHRNA4 (h) (Homo sapiens, UniProt P17787+P43681). The settings on record: IPP screening at 10 uM; control nicotine.
Series [17] has as its target T4, Muscarinic acetylcholine receptor M2, CHRM2 (h) (Homo sapiens, UniProt P08172).
T4 sequence (P08172 1-466): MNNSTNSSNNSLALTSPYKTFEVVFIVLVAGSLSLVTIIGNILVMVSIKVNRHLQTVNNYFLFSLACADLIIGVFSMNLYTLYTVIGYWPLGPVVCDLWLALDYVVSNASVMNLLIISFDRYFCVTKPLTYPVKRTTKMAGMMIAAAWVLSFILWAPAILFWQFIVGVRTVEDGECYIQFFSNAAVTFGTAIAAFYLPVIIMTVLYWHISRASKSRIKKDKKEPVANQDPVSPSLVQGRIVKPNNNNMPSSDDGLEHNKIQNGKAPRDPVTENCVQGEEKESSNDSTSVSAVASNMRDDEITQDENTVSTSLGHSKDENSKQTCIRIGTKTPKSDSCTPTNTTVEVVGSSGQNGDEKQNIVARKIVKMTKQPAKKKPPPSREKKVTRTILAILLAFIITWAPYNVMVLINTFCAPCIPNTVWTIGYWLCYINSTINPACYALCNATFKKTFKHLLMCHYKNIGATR
The settings on record: IPP screening at 10 uM; control methoctramine.

A short description of series [18]: Assignment of risk classifications to benchmark chemical-exposure scenarios. The settings on record: Oral; for risk: Food residue, from table S1.

Molecules are shown by their SMILES.

Chain of Neuronal acetylcholine receptor subunit alpha-4, CHRNA4 (h) (P43681 29-627 limits assumed): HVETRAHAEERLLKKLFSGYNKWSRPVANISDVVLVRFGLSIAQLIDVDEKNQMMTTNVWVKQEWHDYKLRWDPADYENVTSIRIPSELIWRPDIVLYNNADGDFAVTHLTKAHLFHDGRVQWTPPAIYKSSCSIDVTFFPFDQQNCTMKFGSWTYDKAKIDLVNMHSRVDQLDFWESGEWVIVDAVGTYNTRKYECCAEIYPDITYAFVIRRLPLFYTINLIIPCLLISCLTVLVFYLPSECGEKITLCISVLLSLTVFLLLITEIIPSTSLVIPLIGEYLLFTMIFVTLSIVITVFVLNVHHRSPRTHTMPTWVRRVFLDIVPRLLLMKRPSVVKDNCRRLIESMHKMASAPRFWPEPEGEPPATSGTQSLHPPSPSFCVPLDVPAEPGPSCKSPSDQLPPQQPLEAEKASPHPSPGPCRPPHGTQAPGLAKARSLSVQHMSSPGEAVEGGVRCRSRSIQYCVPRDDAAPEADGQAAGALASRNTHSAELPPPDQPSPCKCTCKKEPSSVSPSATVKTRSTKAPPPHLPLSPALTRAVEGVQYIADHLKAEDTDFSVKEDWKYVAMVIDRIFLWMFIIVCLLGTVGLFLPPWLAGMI
Chain of Neuronal acetylcholine receptor subunit alpha-4, CHRNA4 (h) (P17787 26-502): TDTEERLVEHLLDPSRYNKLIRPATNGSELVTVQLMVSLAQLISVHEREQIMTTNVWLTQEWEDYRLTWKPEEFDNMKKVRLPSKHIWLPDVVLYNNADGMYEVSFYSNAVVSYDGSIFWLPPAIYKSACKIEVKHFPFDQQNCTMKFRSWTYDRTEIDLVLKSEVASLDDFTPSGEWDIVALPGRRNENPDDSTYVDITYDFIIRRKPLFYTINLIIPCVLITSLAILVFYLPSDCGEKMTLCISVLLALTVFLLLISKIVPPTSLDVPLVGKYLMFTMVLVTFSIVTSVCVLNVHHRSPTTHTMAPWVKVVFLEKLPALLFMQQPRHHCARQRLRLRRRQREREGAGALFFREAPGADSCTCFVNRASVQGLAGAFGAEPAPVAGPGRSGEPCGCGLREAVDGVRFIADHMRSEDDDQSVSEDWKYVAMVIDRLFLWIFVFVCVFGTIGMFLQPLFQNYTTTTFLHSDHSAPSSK
Chain of Cannabinoid receptor 1, CNR1 (h) (P21554 whole entry): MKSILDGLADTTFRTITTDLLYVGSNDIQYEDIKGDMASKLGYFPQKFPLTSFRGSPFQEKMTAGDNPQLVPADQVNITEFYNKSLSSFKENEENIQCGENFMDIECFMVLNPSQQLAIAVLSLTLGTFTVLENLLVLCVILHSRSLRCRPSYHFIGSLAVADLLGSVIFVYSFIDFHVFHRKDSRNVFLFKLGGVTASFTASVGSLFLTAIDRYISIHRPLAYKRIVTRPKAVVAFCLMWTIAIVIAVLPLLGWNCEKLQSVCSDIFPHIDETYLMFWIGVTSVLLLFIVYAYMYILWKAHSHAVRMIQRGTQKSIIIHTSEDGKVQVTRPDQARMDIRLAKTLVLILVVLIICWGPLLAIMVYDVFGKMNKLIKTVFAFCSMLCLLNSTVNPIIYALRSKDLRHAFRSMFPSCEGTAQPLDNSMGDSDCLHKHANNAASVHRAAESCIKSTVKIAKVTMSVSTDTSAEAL
Chain of Cannabinoid receptor 2, CNR2 (h) (P34972 whole entry): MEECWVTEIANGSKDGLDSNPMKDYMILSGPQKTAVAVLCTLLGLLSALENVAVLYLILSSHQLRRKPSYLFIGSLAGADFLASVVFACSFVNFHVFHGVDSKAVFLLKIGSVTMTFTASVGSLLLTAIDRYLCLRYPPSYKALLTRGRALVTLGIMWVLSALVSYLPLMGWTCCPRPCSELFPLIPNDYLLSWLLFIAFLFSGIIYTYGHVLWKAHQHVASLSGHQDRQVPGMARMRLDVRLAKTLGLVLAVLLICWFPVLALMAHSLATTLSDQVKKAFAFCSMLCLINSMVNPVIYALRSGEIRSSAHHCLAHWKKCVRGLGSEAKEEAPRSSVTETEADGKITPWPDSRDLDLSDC
Chain of 5-hydroxytryptamine receptor 2A, HTR2A (h) (P28223 whole entry): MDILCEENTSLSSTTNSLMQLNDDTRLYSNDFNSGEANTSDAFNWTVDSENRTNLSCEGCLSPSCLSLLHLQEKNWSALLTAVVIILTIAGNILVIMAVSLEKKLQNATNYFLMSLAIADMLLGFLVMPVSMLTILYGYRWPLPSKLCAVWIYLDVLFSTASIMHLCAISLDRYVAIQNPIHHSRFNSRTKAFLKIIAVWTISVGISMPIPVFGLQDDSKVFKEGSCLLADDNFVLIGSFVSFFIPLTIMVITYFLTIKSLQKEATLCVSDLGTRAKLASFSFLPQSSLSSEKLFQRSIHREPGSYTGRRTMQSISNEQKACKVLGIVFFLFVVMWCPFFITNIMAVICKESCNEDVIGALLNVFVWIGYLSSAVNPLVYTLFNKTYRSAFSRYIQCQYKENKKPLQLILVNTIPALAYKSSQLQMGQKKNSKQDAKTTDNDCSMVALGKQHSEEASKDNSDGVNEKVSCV
Chain of 5-hydroxytryptamine receptor 1B, HTR1B (h) (P28222 whole entry): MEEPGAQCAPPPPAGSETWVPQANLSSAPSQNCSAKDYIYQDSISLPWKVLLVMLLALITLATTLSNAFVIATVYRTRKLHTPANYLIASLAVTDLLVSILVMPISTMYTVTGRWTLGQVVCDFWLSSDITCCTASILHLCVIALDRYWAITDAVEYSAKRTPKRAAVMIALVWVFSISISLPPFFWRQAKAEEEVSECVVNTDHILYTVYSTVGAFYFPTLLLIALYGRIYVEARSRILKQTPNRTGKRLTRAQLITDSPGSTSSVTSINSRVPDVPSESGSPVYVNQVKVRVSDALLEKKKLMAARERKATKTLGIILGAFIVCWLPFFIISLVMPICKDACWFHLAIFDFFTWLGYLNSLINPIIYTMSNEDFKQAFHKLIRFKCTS
Chain of Beta-1 adrenergic receptor, ADRB1 (h) (P08588 whole entry): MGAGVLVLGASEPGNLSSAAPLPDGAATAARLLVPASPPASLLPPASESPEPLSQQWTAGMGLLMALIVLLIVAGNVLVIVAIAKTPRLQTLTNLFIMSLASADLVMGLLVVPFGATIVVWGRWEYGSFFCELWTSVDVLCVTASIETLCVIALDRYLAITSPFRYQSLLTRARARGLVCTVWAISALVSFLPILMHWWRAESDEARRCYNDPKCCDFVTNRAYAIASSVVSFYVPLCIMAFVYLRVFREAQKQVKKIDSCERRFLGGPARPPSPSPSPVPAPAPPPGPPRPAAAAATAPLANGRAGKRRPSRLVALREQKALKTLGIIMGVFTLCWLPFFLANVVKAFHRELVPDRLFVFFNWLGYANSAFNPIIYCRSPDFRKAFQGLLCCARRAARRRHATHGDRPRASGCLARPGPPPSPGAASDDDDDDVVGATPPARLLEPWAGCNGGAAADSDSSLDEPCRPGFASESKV

In the case of `CC(C)(C)c1ccc(CCOc2ncnc3ccccc23)cc1` [Fenazaquin, 4-[2-(4-tert-Butylphenyl)ethoxy]quinazoline], the Specific binding in series [1] is reported as -2.2%; in [4] it was 19.8%; in [5], -1.6%; in [6], 57.0%; in series [7] it was 7.6%; in series [8] it was 26.8%. In addition, the Specific binding in [9] is 20.7%; in series [12], 2.7%; in [13], 5.2%; in series [14], 16.5%; in series [15], 65.2%; in series [16] it was -6.4%. In addition, the Specific binding in series [17] is given as 14.3%. The figures for the Enzymatic activity in series [2] and in [3] were 32.4% and -4.7%, respectively. In addition, the “IPP screening %, Specific binding” value in series [10] came out at 11.5%. Besides, the “IPP screening %, Enzymatic activity” value in series [11] was -29.1%. The “Risk Classification” value in [18] (residue, 0.005 mg/kg bw/day) was “Low risk”. Further, the risk in [18] (17% ADI 0.005 mg/kg bw/day, Exp2) is reported as 0; in series [18] (ADI 0.005 mg/kg bw/day, Exp3) it was 0.

Values taken from PMC11879040, “Advancing systemic toxicity risk assessment: Evaluation of a NAM-based toolbox approach” (Toxicological Sciences, 2024).
